Laboratory results from the NIST ThermoML archive (doi:10.1016/j.jct.2012.12.022).
“And” between values parts separate entries of the source, which are not always exact repeats. Equal entries are not always repeated. Numbers after ± are expanded uncertainties.

Experiment: mn = molality of the nth substance listed, in mol/kg
Details: 101 kPa, Liquid; for speed of sound: Sing-around technique in a fixed-path interferometer; for mass density: Vibrating tube method

CC(=O)NCC(=O)O [N-acetylglycine] + O
Details | mass density, 288.15 K | mass density, 293.15 K | mass density, 298.15 K | mass density, 303.15 K | speed of sound, 288.15 K | speed of sound, 293.15 K | speed of sound, 298.15 K [m/s] | speed of sound, 303.15 K
m1 = 0.085 | 1001.93 ± 0.23 kg/m3 | 1000.99 ± 0.23 kg/m3 | 999.799 ± 0.23 kg/m3 | 998.366 ± 0.23 kg/m3 | 1470.3 ± 2.2 m/s | 1485.9 ± 2.2 m/s | 1499.7 ± 2.2 | 1511.7 ± 2.2 m/s
m1 = 0.18 | 1005.02 ± 0.23 kg/m3 and 1004.89 ± 0.23 kg/m3 | 1004.02 ± 0.23 kg/m3 and 1003.9 ± 0.23 kg/m3 | 1002.78 ± 0.23 kg/m3 and 1002.66 ± 0.23 kg/m3 | 1001.3 ± 0.23 kg/m3 and 1001.18 ± 0.23 kg/m3 | 1475.4 ± 2.2 m/s and 1470.6 ± 5 m/s | 1490.5 ± 2.2 m/s and 1490.7 ± 2.2 m/s | 1504 ± 2.2 | 1515.6 ± 2.2 m/s and 1515.5 ± 2.2 m/s

O=C([O-])CC(O)(CC(=O)[O-])C(=O)[O-].[Na+].[Na+].[Na+] [trisodium citrate] + O
Details | mass density, 288.15 K [kg/m3] | mass density, 293.15 K [kg/m3] | mass density, 298.15 K [kg/m3] | mass density, 303.15 K [kg/m3] | speed of sound, 288.15 K [m/s] | speed of sound, 293.15 K [m/s] | speed of sound, 298.15 K [m/s] | speed of sound, 303.15 K [m/s]
m1 = 0.00247 | 999.597 ± 0.2 | 998.701 ± 0.2 | 997.537 ± 0.2 | 996.131 ± 0.2 | 1467.4 ± 2.1 | 1483 ± 2.1 | 1497.2 ± 2.1 | 1509.6 ± 2.1
m1 = 0.04871 | 1008.4 ± 0.2 | 1007.39 ± 0.2 | 1006.09 ± 0.2 | 1004.6 ± 0.2 | 1479.1 ± 2.1 | 1493.7 ± 2.1 | 1507.2 ± 2.1 | 1519.6 ± 2.1
m1 = 0.09738 | 1017.15 ± 0.2 | 1016.08 ± 0.2 | 1014.65 ± 0.2 | 1013.09 ± 0.2 | 1488.8 ± 2.1 | 1503.5 ± 2.1 | 1516.8 ± 2.1 | 1529 ± 2.1
m1 = 0.201 | 1034.85 ± 0.2 | 1033.45 ± 0.2 | 1031.8 ± 0.2 | 1030.15 ± 0.2 | 1509.2 ± 2.1 | 1523.4 ± 2.1 | 1536.7 ± 2.1 | 1547.8 ± 2.1
m1 = 0.2898 | 1049.56 ± 0.21 | 1047.86 ± 0.21 | 1046.01 ± 0.21 | 1044.34 ± 0.21 | 1526.1 ± 2.1 | 1540 ± 2.1 | 1552.4 ± 2.1 | 1562.6 ± 2.1
m1 = 0.3899 | 1065.78 ± 0.21 | 1063.45 ± 0.21 | 1061.6 ± 0.21 | 1059.7 ± 0.21 | 1545.2 ± 2.1 | 1558.9 ± 2.1 | 1570.2 ± 2.1 | 1579 ± 2.1
m1 = 0.4966 | 1082.16 ± 0.21 | 1079.75 ± 0.21 | 1077.6 ± 0.21 | 1075.59 ± 0.21 | 1565.2 ± 2.1 | 1578 ± 2.1 | 1587.1 ± 2.1 | 1596.3 ± 2.1
m1 = 0.6007 | 1097.37 ± 0.21 | 1094.95 ± 0.21 | 1092.45 ± 0.21 | 1090.27 ± 0.21 | 1583.7 ± 2.1 | 1595 ± 2.1 | 1603.5 ± 2.1 | 1612.2 ± 2.1
m1 = 0.7036 | 1111.65 ± 0.22 | 1109.41 ± 0.22 | 1106.71 ± 0.22 | 1104.4 ± 0.22 | 1601 ± 2.1 | 1611.8 ± 2.1 | 1617.6 ± 2.1 | 1626.5 ± 2.1
m1 = 0.7698 | 1120.84 ± 0.22 | 1118.51 ± 0.22 | 1115.58 ± 0.22 | 1113.15 ± 0.22 | 1612.3 ± 2.1 | 1621.3 ± 2.1 | 1628.1 ± 2.1 | 1635.6 ± 2.1
m1 = 0.9013 | 1138.29 ± 0.22 | 1135.53 ± 0.22 | 1132.31 ± 0.22 | 1129.69 ± 0.22 | 1636.1 ± 2.1 | 1643.5 ± 2.1 | 1646 ± 2.1 | 1652.1 ± 2.1
